In patent US20250011878A1, “METHOD TO DETECT RNA BIOMARKERS” (ITALFARMACO SPA, priority 2021, published 2025):
Read-outs that look alike come from different tables or passages of the source.

How the values were obtained:
[1] = system: PBMC; assay: Quantitative real-time PCR gene modulation in PBMC; format: cell-based, human; details: PBMC treated with 1 μM ITF3756, 4 hours; qPCR vs vehicle-treated cells
Protocol: The gene expression has been determined by comparing the expression of the above genes in the treated cells versus vehicle-treated cells. PBMC were resuspended in RPMI 1640 medium (Dutch modified, ThermoFisher) at the density of 1×10^6 cells/ml. Cells were plated in 6-well plates (Corning), 3 ml per well. Cells were treated with […] at four concentrations: 0.25, 0.5, 1 and 2 μM. Each treatment concentration was replicated in 3 wells for experimental triplicate test. Vehicle (DMSO 0.05%) treated cells were plated at the same density and volumes. Plates were incubated for 4 hours at 37° C. 5% C02. At the end of treatment incubation cells were collected for total RNA extraction. After treatment with the test compound, PBMC were withdrawn from 6-well plates and collected in 15 ml tubes (Falcon). Wells were washed once with 1 ml of PBS pH 7.4 (ThermoFisher) and the wash volume was added to the collected cell suspensions. […] RNA concentration was determined using Nano Drop 1000 spectrophotometer. […] 3 μl of cDNA corresponding to 40 ng of template were added to PCR reaction reagent for a total volume of 15 μl as shown below: The level of mRNA expression modulation was evaluated comparing the mRNA level in treated versus not-treated samples; all data were normalized versus the average expression signal of three housekeeping genes (reference genes: UBC, B2M and HPRT1) in the corresponding samples. […]

[2] = system: tumor microenvironment of CT26-bearing animals; assay: Ex-vivo RNAseq gene expression in tumor microenvironment of CT26-bearing mice, responders vs non responders; set-up: species or system BALB/c mice; details: RNAseq total counts
Protocol: (§1) Adult BALB/c mice were injected s.c. with 1×10^6 CT26 tumor cells (diluted to 100 μl with phosphate buffered saline) and treated with anti-PD1 or ITF3756 when the tumor volume reached 75-100 mm^3, to explore the modulation of genes in the tumor microenvironment by RNAseq. Since ITF3756 acts on the PD-1/PD-L1 axis, this approach allows the identification of genes specific and common to both treatments. The overall schedule is described in Table 9.
RNA was extracted from flash frozen tumors using the Qiagen extraction kit and stored at −80° C. A paired-end sequencing was chosen, in which short reads are obtained from ends of DNA fragments for ultra-high-throughput sequencing. Prior to further analysis, a quality check was performed on the sequencing data. All samples contain sequences 75 nucleotides long (75 nt×2).
The RNA-Seq analysis pipeline involved several steps: • 1. Quality Control of the reads, • 2. Removal of low quality reads • 3. Reads spliced Alignment • 4. Transcriptome expression quantification analysis
The sample was mapped on reference Mus musculus genome (mm10) using the bioinformatics tool STAR (version 2.4.0d), with the standard parameters for paired reads. The reference track was the assembly mm10 obtained from Refseq. […] Average mapping ratio was above 93% and Ribosomal content was below 1% for all samples.
The quantification of transcripts expressed for each sequenced sample was performed using Cufflinks. The units of measurement used in Cufflinks is FPKM (Fragments Per Kilobase of transcript per Million mapped reads) and it is meant to be a measure of relative abundance of a transcript/gene in a RNA pool. It is not intended to be used directly for Differential Expression but it is meant to be human readable, and takes into account main technical confounding factors such as millions of reads and gene length.
Responders and non-responders were selected based on tumor volume at day 20. […]
Statistical significance was determined by unpaired t-test using GraphPad software (version 9), p-values […] were considered significant.

[3] = mouse, in vivo, 1000 mg/kg
[4] = dog, in vivo, 1000 mg/kg
[5] = system: CT26 tumor cells; assay: CT26 tumor volume in BALB/c mice, responders and non-responders; format: in vivo; details: CT26 s.c. in BALB/c mice, treatment day 10 to day 20; three groups of animals with different tumor reduction
Protocol: as §1
Responders and non-responders were selected based on tumor volume at day 20. The volume of the tumor at the beginning of the treatments (day 10) was on average about 75 mm^3. Based on this value of tumor volume, we classified the animals according to the following criteria: • Animals with tumor volume lower or equal to 75 mm^3 were considered RESPONDERS (R) • Animals with tumor volume greater than 75 mm^3 were considered NON RESPONDERS (NR)

With `O=C(NO)c1ccc(Cn2nnnc2-c2cccs2)cc1` [ITF3756, N-hydroxy-4-((5-(thiophen-2-yl)-1 H-tetrazol-1-yl)methyl)benzamide] the IRF6 gene modulation [1] was “upregulation”, the STAB1 gene modulation [1] was “downmodulation” and the “IRF6 expression in the tumor microenvironment, responders compared to non responders” value ([2]; p<0.1) was “striking expression upregulation”. For the same compound, the “CD40 expression in the tumor microenvironment, responders compared to non-responder mice” value ([2]; unpaired t-test) was “statistically significant upregulation”, the “MMP9 expression in the tumor microenvironment, responders compared to non responders” value ([2]; unpaired t-test) was “statistically significant reduction” and the tolerability [3] was “well tolerated”. For the same compound, the tolerability [4] was “well tolerated” and the “tumor response (tumor volume)” value [5] was “heterogeneous response”.
